# Measurements published in US9776987B2, “Amide derivatives for GPR119 agonist” (CHONG KUN DANG PHARMACEUTICAL CORP., priority 2013, dated 2017).
# Target: T1, human GPR119 receptor (Homo sapiens, UniProt Q8TDV5)
# T1 construct: host or cells: GeneBLAzer T-Rex GPR 119 CHO-K1 DA cells (CHO-K1)
# T1 sequence (Q8TDV5 1-335): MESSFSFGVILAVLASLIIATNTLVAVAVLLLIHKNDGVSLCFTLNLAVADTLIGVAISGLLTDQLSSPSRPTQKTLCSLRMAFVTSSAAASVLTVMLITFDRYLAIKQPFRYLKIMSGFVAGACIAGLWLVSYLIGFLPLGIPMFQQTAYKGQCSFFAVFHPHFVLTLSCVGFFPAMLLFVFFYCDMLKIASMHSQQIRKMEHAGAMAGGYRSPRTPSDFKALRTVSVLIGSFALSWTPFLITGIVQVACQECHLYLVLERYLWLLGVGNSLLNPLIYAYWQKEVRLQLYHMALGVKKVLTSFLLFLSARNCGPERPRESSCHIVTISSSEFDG
# Assay: Activity test for human GPR119 receptor (GeneBLAzer T-Rex GPR 119 CHO-K1 DA cells)
# Assay type: cell-based
# Conditions: for EC50: human GPR119 receptor expressing CHO-K1 cells, 5 hours treatment, read-out: hGPR119 EC50; for activity for human GPR119 receptor (in words): judgement on the EC50 values of Table 11
# Description: 1. Human GPR119 Receptor Cell
# As a human GPR119 receptor expression cell for this test, the cell line “GeneBLAzer™ T-Rex GPR 119 CHO-K1 DA cells” that is commercially available from Invitrogen, was used. The cell was incubated in the DMEM media containing 1% dialyzed fetal bovine serum etc. The cell incubator was kept at constant temperature and constant humidity of 37° C., 5% CO2.
# 2. Activity Test for Human GPR119 Receptor
# The human GPR119 receptor expressing cell was used to this test. Each of test compounds was added to be final concentrations of 0.1, 1, 10 μM in 96 well and tested in duplicate. A fixed amount of cell was added to each well of 96 well separately, and then treated with the test compound for 5 hours. After treatment of color development agent for 2 hours, the fluorescence value was determined with plate reader. To the luminous wavelength of control well, which was not treated with the sample, but in which only a vehicle […] was contained, the ratio of the luminous wavelength of test well, which was treated with the sample, was calculated, and then converted to obtain EC50 value.
# 3. Statistical Processing
# All the results were expressed as mean±SD, and each test groups and the control group were compared using student's t-test to adjudge the effects of each test groups.
SMILES,EC50 [pM],activity for human GPR119 receptor (in words)
"CCC(F)(CC)CN1CCC(COc2ccc(-c3ccc(C(=O)N4CC[C@H](O)[C@H]4C(N)=O)c(F)c3)cc2F)CC1 [Compound 1244, (2S,3S)-1-(4′-((1-(2-ethyl-2-fluorobutyl)piperidin-4-yl)methoxy)-3,3′-difluorobiphenylcarbonyl)-3-hydroxypyrrolidin-2-carboxamide]",300,–
"NC(=O)[C@@H]1C[C@@H](O)CN1C(=O)c1ccc(-c2ccc(OCC3CCN(CC(F)(F)C(F)(F)F)CC3)cc2)cc1F [Compound 1256, (2S,4R)-1-(3-fluoro-4′-((1-(2,2,3,3,3-pentafluoropropyl)piperidin-4-yl)methoxy)biphenylcarbonyl)-4-hydroxypyrrolidin-2-carboxamide]",400,–
"CCC(F)(CC)CN1CCC(COc2ccc(-c3ccc(C(=O)N4C[C@H](O)C[C@@H]4C(N)=O)cc3F)cc2)CC1 [Compound 1321, (2R,4R)-1-(4′-((1-(2-ethyl-2-fluorobutyl)piperidin-4-yl)methoxy)-2-fluorobiphenylcarbonyl)-4-hydroxypyrrolidin-2-carboxamide]",53000,–
"CCC(F)(CC)CN1CCC(COc2ccc(-c3ccc(C(=O)N4C[C@H](O)C[C@H]4C(N)=O)cc3F)nc2)CC1 [Compound 1287, (2S,4R)-1-(4-(5-((1-(2-ethyl-2-fluorobutyl)piperidin-4-yl)methoxy)pyridin-2-yl)-3-fluorobenzoyl)-4-hydroxypyrrolidin-2-carboxamide]",20000,–
"NC(=O)[C@@H]1C[C@@H](O)CN1C(=O)c1ccc(-c2ccc(OCC3CCN(CC4(C(F)(F)F)CCC4)CC3)nc2)cc1F [Compound 1317, (2S,4R)-1-(2-fluoro-4-(6-((1-((1-(trifluoromethyl)cyclobutyl)methyl)piperidin-4-yl)methoxy)pyridin-3-yl)benzoyl)-4-hydroxypyrrolidin-2-carboxamide]",60000,–

# Stronger by EC50, values ahead:
EC50 [pM],activity for human GPR119 receptor (in words),SMILES
200,–,"CCC(F)(CC)CN1CCC(COc2ccc(-c3ccc(C(=O)N4C[C@@H](F)C[C@H]4C(N)=O)cc3F)cc2)CC1 [Compound 1210, (2S,4S)-1-(4′-((1-(2-ethyl-2-fluorobutyl)piperidin-4-yl)methoxy)-2-fluorobiphenylcarbonyl)-4-fluoropyrrolidin-2-carboxamide]"
100,–,"NC(=O)[C@@H]1[C@@H](O)CCN1C(=O)c1ccc(-c2ccc(OCC3CCN(CC4(C(F)(F)F)CCC4)CC3)cc2)c(F)c1 [Compound 1220, (2S,3S)-1-(2-fluoro-4′-((1-((1-(trifluoromethyl)cyclobutyl)methyl)piperidin-4-yl)methoxy)biphenylcarbonyl)-3-hydroxypyrrolidin-2-carboxamide]"
100,excellent activity,"NC(=O)[C@@H]1[C@@H](O)CCN1C(=O)c1ccc(-c2cnc(OCC3CCN(CC4(C(F)(F)F)CCC4)CC3)cn2)cc1F [Compound 1249, (2S,3S)-1-(2-fluoro-4-(5-((1-((1-(trifluoromethyl)cyclobutyl)methyl)piperidin-4-yl)methoxy)pyrazin-2-yl)benzoyl)-3-hydroxypyrrolidin-2-carboxamide]"
90,excellent activity,"CC(C)(CN1CCC(COc2ccc(-c3ccc(C(=O)N4CCC[C@H]4C(N)=O)c(F)c3)nc2)CC1)C(F)(F)F [Compound 1267, (S)-1-(2-fluoro-4-(5-((1-(3,3,3-trifluoro-2,2-dimethylpropyl)piperidin-4-yl)methoxy)pyridin-2-yl)benzoyl)pyrrolidin-2-carboxamide]"
90,excellent activity,"CC(C)(CN1CCC(COc2ccc(-c3ccc(C(=O)N4CCC[C@@]4(C)C(N)=O)c(F)c3)nc2)CC1)C(F)(F)F [Compound 1269, (S)-1-(2-fluoro-4-(5-((1-(3,3,3-trifluoro-2,2-dimethylpropyl)piperidin-4-yl)methoxy)pyridin-2-yl)benzoyl)-2-methylpyrrolidin-2-carboxamide]"
